# ChEMBL document CHEMBL1147469, “Design and synthesis of de novo cytotoxic alkaloids through mimicking taxoid skeleton” (Bioorg Med Chem Lett, 2004)
# pIC50: −log10 of the molar value.
# Columns and labels:
# Assay type in all cases: functional, cell-based
# MDA-MB-435 [1] = experiment: In vitro cytotoxic activity against growth of MDR1 transduced line (LCC6-MDR) after 72 hr; conditions: Homo sapiens, MDA-MB-435, 72 h
# MCF7S = experiment: In vitro cytotoxic activity against growth of human breast carcinoma cell line (MCF-7-S) after 72 hr
# MDA-MB-435 [2] = experiment: In vitro cytotoxic activity against growth of human breast carcinoma cell line (LCC6-WT) after 72 hr; conditions: MDA-MB-435, 72 h
# MCF7R = experiment: In vitro cytotoxic activity against growth of MDR phenotype human breast carcinoma cell line (MCF-7-R) after 72 hr
molecule,measurement,setting,value
CC(C)C[C@@H]1NC(=O)OCCCc2cccc(c2)C(=O)O[C@H]2C=CC(=O)N3C[C@H](C[C@H]23)OC(=O)[C@@H]1O,pIC50,MDA-MB-435 [1],< 4.70
same,pIC50,"MCF7S; Homo sapiens, MCF7S, 72 h",< 4.70
same,pIC50,MDA-MB-435 [2],< 4.70
same,pIC50,"MCF7R; Homo sapiens, MCF7R, 72 h",< 4.70
COc1cccc(C(=O)O[C@H]2CCC(=O)N3C[C@@H](OC(=O)[C@H](O)[C@H](CC(C)C)NC(=O)OC(C)(C)C)C[C@H]23)c1,pIC50,MDA-MB-435 [1],< 4.70
same,pIC50,"MCF7S; Homo sapiens, MCF7S, 72 h",4.85
same,pIC50,MDA-MB-435 [2],< 4.70
same,pIC50,"MCF7R; Homo sapiens, MCF7R, 72 h",< 4.70
CC(=O)O[C@H]1C(=O)[C@@]2(C)[C@H]([C@H](OC(=O)c3ccccc3)[C@]3(O)C[C@H](OC(=O)[C@H](O)[C@@H](NC(=O)c4ccccc4)c4ccccc4)C(C)=C1C3(C)C)[C@]1(OC(C)=O)CO[C@@H]1C[C@@H]2O [PACLITAXEL],pIC50,MDA-MB-435 [1],6.42
same,pIC50,"MCF7S; Homo sapiens, MCF7S, 72 h",8.70
same,pIC50,MDA-MB-435 [2],8.40
same,pIC50,"MCF7R; Homo sapiens, MCF7R, 72 h",5.93
CISPLATIN,pIC50,MCF7S; mcf7s,5.40
same,pIC50,MCF7R; mcf7r,5.45
